This is an account of results in patent EP0402033A1, “Carboxamide derivatives” (OTSUKA PHARMACEUTICAL FACTORY, INC., priority 1989, dated 1990).

For data set [1], the system named is plasma high density lipoprotein cholesterol (HDLC). Nature of the data set: Pharmacological Test - 1: increase of plasma HDLC concentration in rats after oral administration. In kind it is in vivo, Wistar strain male rats. The conditions noted are these: Wistar male rats, 300 mg/5 ml/kg/day for 2 days in 0.5%-CMC, blood taken after 20 hours fasting, relative to control group. As to the method:
Seven-week-old Wistar strain male rats were used as the test animals. One test group consisting of six (6) rats. A test compound was suspended in a 0.5%-carboxymethyl cellulose (CMC) aqueous solution, thus prepared suspension containing the test compound was orally administered compulsorily by using a sonde to the rat in the amount of 300 mg/5 ml/kg/day for 2 days. Similar to the test group, to each of six (6) rats in the control group was administered with 0.5%-CMC aqueous solution without containing the test compound.
After the final administration was finished, the test rat was fasted for 20 hours, and the blood sample was taken from the rat. The concentration of plasma high density lipoprotein cholesterol (HDLC) was determined by using a measuring instrument of HDL-C kit-N (manufactured by Nihon Shoji Kabushiki Kaisha).
Increasing ratio (%) of plasma HDLC concentration performed by a test compound was calculated from the formula as follows: [formula]

Another data set relates to erythrocytes. Nature of the data set: Pharmacological Test - 2 (Hemolysis test) in mice after oral administration. It is filed as in vivo, ddY-strain male mice. The conditions noted are these: ddY male mice, 600 mg/5 ml/kg/day for 10 days, 20 hours fasting, mean of test group divided by mean of control group. As to the method:
Seven-week-old ddY-strain male mice were used as test animals. One test group consisting of six (6) mice. A test compound was suspended in a 0.5%-carboxymethyl cellulose (CMC) aqueous solution, thus prepared suspension containing the test compound was orally administered compulsorily by using a sonde to the mouse in the amount of 600 mg/5 ml/kg/day for 10 days. Similar to the above, to each of six mice in the control group was administered with 0.5%-CMC aqueous soluiton without containing the test compound.
After the final administration was finished, the mouse was fasted for 20 hours, then the mouse was subjected to dissection and the blood sample as well as the sample of the spleen were taken by enucleation. The number of the erythrocytes was counted and the weight of the spleen was measured.
The ratio of number of the erythrocytes was calculated by dividing the mean value of number of the erythrocytes obtained from the test group by the mean value of number of the erythrocytes obtained from the control group. Similarly, the ratio of weight of the spleen was calculated by dividing the mean value of weight of the spleen obtained from the test group by the mean value of weight of the spleen obtained from the control group.

For `CCOP(=O)(Cc1ccc(C(=O)Nc2ccc(I)cc2C#N)cc1)OCC` [Compound of Example 4], in data set [1], the “Increasing ratio (%) of the plasma HDLC concentration” value (“Increasing ratio (%)” below) is given as 187%.
Consider `CCOP(=O)(Cc1ccc(C(=O)Nc2ccc(Cl)cc2C#N)cc1)OCC` [Compound of Example 2], for which the “Increasing ratio (%)” value in data set [1] is 196%. In the data set with erythrocytes, the “Ratio of number of the erythrocytes” value is given as 0.97 and the “Ratio of weight of the spleen” value was determined as 1.09.
Taken in the same sequence, the figures for `CCOP(=O)(Cc1ccc(C(=O)Nc2ccc(C#N)cc2Br)cc1)OCC` [Compound of Example 5] were 222%, 1.07 and 0.94.
With `CCOP(=O)(Cc1ccc(C(=O)Nc2ccc(C#N)cc2Cl)cc1)OCC` [Compound of Example 3], the “Increasing ratio (%)” value in data set [1] is given as 187%.
Regarding `CCOP(=O)(Cc1ccc(C(=O)Nc2ccc(Br)cc2C#N)cc1)OCC` [Compound of Example 1, 4-diethoxyphosphinoylmethyl-N-(4-bromo-2-cyanophenyl)benzamide], the “Increasing ratio (%)” value in data set [1] worked out at 193%. For the same molecule, in the data set with erythrocytes, the “Ratio of number of the erythrocytes” value came out at 0.96 and the “Ratio of weight of the spleen” value was found to be 1.13.
For `CCOP(=O)(Cc1ccc(C(=O)Nc2ccc(C#N)cc2I)cc1)OCC` [Compound of Example 7], the “Increasing ratio (%)” value in data set [1] is listed as 184%.
